The Ki is the dissociation constant of the complex between target and ligand, obtained from inhibition or displacement. A lower Ki goes with tighter binding.

SMILES strings stand for the structures.

The target of one assay is T1, Arabidopsis HPPD (Arabidopsis thaliana, UniProt P93836).
T1 construct: His6 (N); made in house; host or cells: E. coli BL21 (DE3)
T1 sequence (P93836 1-445): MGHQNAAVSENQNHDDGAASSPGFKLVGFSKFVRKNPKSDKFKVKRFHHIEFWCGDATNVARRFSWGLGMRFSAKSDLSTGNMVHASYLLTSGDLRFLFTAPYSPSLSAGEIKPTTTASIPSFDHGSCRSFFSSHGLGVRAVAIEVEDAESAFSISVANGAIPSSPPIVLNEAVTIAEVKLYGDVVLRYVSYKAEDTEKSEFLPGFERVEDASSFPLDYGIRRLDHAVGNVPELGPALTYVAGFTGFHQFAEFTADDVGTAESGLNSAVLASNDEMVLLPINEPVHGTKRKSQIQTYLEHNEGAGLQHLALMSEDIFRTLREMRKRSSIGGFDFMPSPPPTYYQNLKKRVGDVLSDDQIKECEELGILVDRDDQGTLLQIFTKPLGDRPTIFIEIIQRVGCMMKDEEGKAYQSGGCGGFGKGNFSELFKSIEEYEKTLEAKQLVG
Nature of the assay: HPPD activity assay (homogentisic acid by HPLC), in vitro characterization. Conditions: for Normalized tolerance index (TI): Arabidopsis HPPD Wildtype (SEQ ID: 53), reference. It is filed as biochemical. The procedure: (§1) HPPD produces homogentisic acid and CO2 from 4-hydroxyphenylpyruvate (4-HPP) and O2. The activity assay for HPPD is based on the analysis of homogentisic acid by reversed phase HPLC.
(§2) The assay mixture can contain 150 mM potassium phosphate buffer pH 7.0, 50 mM L-ascorbic acid, 100 μM Catalase (Sigma-Aldrich), 1 μM FeSO4 and 0.2 units of purified HPPD enzyme in a total volume of 505 μl. 1 unit is defined as the amount of enzyme that is required to produce 1 nmol of HGA per minute at 20° C.
(§3) After a preincubation of 30 min the reaction is started by adding 4-HPP to a final concentration of 0.05 mM. The reaction is allowed to proceed for 45 min at room temperature. The reaction is stopped by the addition of 50 μl of 4.5 M phosphoric acid. The sample is filtered using a […] pore size PVDF filtration device.
(§4) 5 μl of the cleared sample is analyzed on an UPLC HSS T3 column (particle size 1.8 μm, dimensions 2,1×50 mm; Waters) by isocratic elution using 90% 20 mM NaH2PO4 pH 2.2, 10% methanol (v/v).
(§5) HGA is detected electrochemically at 750 mV (mode: DC; polarity: positive) and quantified by integrating peak areas (Empower software; Waters).
(§6) Inhibitors are dissolved in DMSO (dimethylsulfoxide) to a concentration of 0.5 mM. From this stock solution serial five-fold dilutions are prepared in DMSO, which are used in the assay. The respective inhibitor solution accounts for 1% of the assay volume. […] Activities are normalized by setting the uninhibited enzyme activity to 100%. IC50 values are calculated using non-linear regression.
(§7) Using methods which are described in the above examples or well known in the art, purified, recombinant wildtype HPPD enzymes are characterized with respect to their kinetic properties and sensitivity towards HPPD inhibiting herbicides. Apparent michaelis constants (Km) and maximal reaction velocities (Vmax) are calculated by non-linear regression with the software GraphPad Prism 5 (GraphPad Software, La Jolla, USA) using a substrate inhibition model. […] Weighted means (by standard error) of Km and IC50 values are calculated from at least three independent experiments. […] To assess the potential performance of a herbicide tolerance trait a tolerance index (TI) is calculated using the following formula: […]

For assay [1], the target named is T2, Hordeum HPPD (SEQ ID NO:2) (Hordeum vulgare, UniProt O48604, A164G/R146V/R147D/R148G).
T2 construct: subcloned into a modified pET24D (Novagen) expression vector resulting in N-terminally His-tagged expression constructs; His (N); made in house; host or cells: E. coli BL21 (DE3)
Nature of the assay: HPPD activity assay, in vitro characterization. It is filed as biochemical. The procedure:
as §1, §2, §3, §4, §5, §6, §7

For the next assay, the system named is Kordia HPPD. Put plainly: HPPD activity assay, in vitro characterization. It counts as biochemical. The note with it: normalized to Hordeum SEQ ID NO:2. The procedure: as §1, §2, §3, §4, §5
(§8) Inhibitors are dissolved in DMSO (dimethylsulfoxide) to a concentration of 0.5 mM. From this stock solution serial five-fold dilutions are prepared in DMSO, which are used in the assay. The respective inhibitor solution accounts for 1% of the assay volume. Thus, final inhibitor concentrations range from […], respectively. Activities are normalized by setting the uninhibited enzyme activity to 100%. IC50 values are calculated using non-linear regression.
(§9) Using methods which are described in the above examples or well known in the art, purified, recombinant wildtype HPPD enzymes are characterized with respect to their kinetic properties and sensitivity towards HPPD inhibiting herbicides. Apparent michaelis constants (Km) and maximal reaction velocities (Vmax) are calculated by non-linear regression with the software GraphPad Prism 5 (GraphPad Software, La Jolla, USA) using a substrate inhibition model. Apparent kcat values are calculated from Vmax assuming 100% purity of the enzyme preparation. Weighted means (by standard error) of Km and IC50 values are calculated from at least three independent experiments. The Cheng-Prusoff equation for competitive inhibition (Cheng, Y. C.; Prusoff, W. H. Biochem Pharmacol 1973, 22, 3099-3108) is used to calculate dissociation constants (Ki). • Field performance of the HPPD enzyme, which is used as a herbicide tolerance trait, may depend not only on its lack of sensitivity towards HPPD inhibiting herbicides but also on its activity. To assess the potential performance of a herbicide tolerance trait a tolerance index (TI) is calculated using the following formula: […]
(§10) The reference SEQ ID NO:2 was included as a comparative control in a representative number of experiments and the values given in Table 12 are the average values from a number of experiments. The TI values given for various HPPD enzymes from different organisms are normalized to the value of the reference SEQ ID NO:2.

Another assay concerns Lolium HPPD. Nature of the assay: HPPD activity assay, in vitro characterization. Conditions: normalized to Hordeum SEQ ID NO:2. It counts as biochemical. The procedure:
as §1, §2, §3, §4, §5, §8, §9, §10

In a further assay the test system is Rhodococcus HPPD1. Nature of the assay: HPPD activity assay, in vitro characterization. It counts as biochemical. The note with it: normalized to Hordeum SEQ ID NO:2. The procedure: as §1, §2, §3, §4, §5, §8, §9, §10
A further assay concerns Rhodococcus HPPD2. Nature of the assay: HPPD activity assay, in vitro characterization. It counts as biochemical. Conditions: normalized to Hordeum SEQ ID NO:2. The procedure:
as §1, §2, §3, §4, §5, §8, §9, §10

Assay [2] has as its system Zea mays HPPD mutant Seq ID 67. Nature of the assay: HPPD activity assay, in vitro characterization. The note with it: normalized to Hordeum SEQ ID NO:2. It is filed as biochemical. Here is the method:
as §1, §2, §3, §4, §5, §8, §9, §10

Assay [3] concerns Zea mays HPPD mutant Seq ID 69. Nature of the assay: HPPD activity assay, in vitro characterization. It is filed as biochemical. Conditions: normalized to Hordeum SEQ ID NO:2. The procedure: as §1, §2, §3, §4, §5, §8, §9, §10
The test system of another assay is Picrophilus HPPD. Nature of the assay: HPPD activity assay, in vitro characterization. It is filed as biochemical, Picrophilus torridus. Conditions: normalized to Hordeum SEQ ID NO:2. Here is the method: as §1, §2, §3, §4, §5
Inhibitors are dissolved in DMSO (dimethylsulfoxide) to a concentration of 0.5 mM. From this stock solution serial five-fold dilutions are prepared in DMSO, which are used in the assay. […] IC50 values are calculated using non-linear regression. […]

[4] abbreviates: Hordeum HPPD Wild-type (SEQ ID NO: 2), reference of Table 16.
Where [5] appears, read: Hordeum HPPD, reference, normalized to SEQ ID NO:2.

T2 sequence (O48604 whole entry R146V/R147D/R148G/A164G): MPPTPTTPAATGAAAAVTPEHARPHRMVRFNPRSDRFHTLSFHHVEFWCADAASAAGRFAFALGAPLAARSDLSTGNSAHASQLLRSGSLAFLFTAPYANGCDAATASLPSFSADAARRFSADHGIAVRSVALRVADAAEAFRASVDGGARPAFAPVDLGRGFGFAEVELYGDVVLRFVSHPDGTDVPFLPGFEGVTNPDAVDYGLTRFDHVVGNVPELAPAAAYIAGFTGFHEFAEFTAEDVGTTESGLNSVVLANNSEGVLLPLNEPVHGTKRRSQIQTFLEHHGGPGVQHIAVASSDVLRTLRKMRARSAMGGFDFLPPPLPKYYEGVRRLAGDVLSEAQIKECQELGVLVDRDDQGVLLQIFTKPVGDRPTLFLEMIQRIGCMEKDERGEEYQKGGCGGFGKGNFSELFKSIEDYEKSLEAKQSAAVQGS

As to `Cn1nnnc1NC(=O)c1c(F)cc(Cl)c(S(C)(=O)=O)c1Cl` [Inhibitor 1, 2,4-dichloro-6-fluoro-3-methylsulfonyl-N-(1-methyltetrazol-5-yl)benzamide], the figures for the inhibition constant Ki (on Arabidopsis HPPD; in assay [1]) were 15 nM and 3.7 nM, respectively. The “Normalized tolerance index (TI)” value at Arabidopsis HPPD came out at 1; in assay [1] (setting [4]), 1; in assay [1] (setting [5]), 1; in the assay on Kordia HPPD, 1.2; in the assay on Lolium HPPD, 4.2; with Rhodococcus HPPD1, 2.8. The “Normalized tolerance index (TI)” value in the assay on Rhodococcus HPPD2 is 2.8; in assay [2] it was 5; in assay [3], 1.4; with Picrophilus HPPD, 2.1. Besides, the “TI (tolerance index)” value at Arabidopsis HPPD (Arabidopsis HPPD, not normalized) is 15E−3; in assay [1] (Hordeum HPPD, not normalized) it was 1.6E−3.

As for `CSc1c(Cl)cc(F)c(C(=O)Nc2ncnn2C)c1Cl` [Inhibitor 3, 2,4-dichloro-6-fluoro-3-methylsulfanyl-N-(2-methyl-1,2,4-triazol-3-yl)benzamide], the “Normalized tolerance index (TI)” value at Arabidopsis HPPD worked out at 1; in [1] (setting [4]), 1; in assay [1] (setting [5]), 1; in the assay with Kordia HPPD, 3.1; in the assay with Lolium HPPD it was 1.7; in the assay with Rhodococcus HPPD1 it was 0.4. The “Normalized tolerance index (TI)” value with Rhodococcus HPPD2 is on record as 12.5; in assay [2] it was 3.8; in assay [3] it was 0.7; in the assay on Picrophilus HPPD it was 0.7.
